Some test systems named below: HOP-92; ACHN; M14; SN12C; DU-145; LOX IMVI; NCI-H226; HOP-62; CCRF-CEM; SF-295; UACC-62; BT-549; MCF7; SR; OVCAR-3; SNB-19; Malme-3M; RPMI-8226.
What all share (test): growth of human tumour cells (NCI), 48 h

Molecules are shown by their SMILES.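 Protocol summary: plate cells (96-well), add compound at 5 concentrations, incubate 48 h, interpolate endpoints linearly. GI50 marks 50% less growth.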 Calls of active or inactive are those of the source. Rule as the data show it: active = GI50 up to about 1.1 µM and inactive = higher.

Take `Cc1ccc2c(c1)S(=O)(=O)c1ccc3ccccc3c1N2`: the GI50 in the assay with HOP-92, in the assay with ACHN, in the assay on M14, in the assay with SN12C, in the assay with DU-145 and with LOX IMVI was > 100 µM (inactive) each time. In addition, the GI50 in the assay on NCI-H226, in the assay on HOP-62, in the assay on CCRF-CEM, in the assay with SF-295, in the assay with UACC-62 and in the assay on BT-549 was > 100 µM (inactive) in each case. The GI50 with MCF7 is > 100 µM (inactive); with SR, 15.4 µM (inactive); with OVCAR-3, > 100 µM (inactive); with SNB-19, > 100 µM (inactive).
As to `COc1ccc(OC)c(C2Cc3cnc4nc(N)nc(N)c4c3C2)c1` (stereo unspecified), the GI50 in the assay on HOP-92 is 24.3 µM (inactive); with ACHN it was 32.6 µM (inactive); in the assay on Malme-3M it was 20.8 µM (inactive); in the assay on M14, 36.1 µM (inactive); in the assay on SN12C it was 21.7 µM (inactive); with DU-145, 29.2 µM (inactive). Moreover, the GI50 in the assay on LOX IMVI is 19.8 µM (inactive); in the assay on HOP-62, 34.4 µM (inactive); in the assay with CCRF-CEM, 24.4 µM (inactive); in the assay with SF-295 it was 28.6 µM (inactive); in the assay with UACC-62 it was 18.6 µM (inactive); in the assay on BT-549, 22.8 µM (inactive). Further, the GI50 is 29.2 µM (inactive) in the assay on MCF7; 29.6 µM (inactive) in the assay with RPMI-8226; 19.4 µM (inactive) with SR; 20.5 µM (inactive) in the assay on OVCAR-3; 38.4 µM (inactive) in the assay with SNB-19.
Regarding `C=CCC1C(O[Si](C)(C)C(C)(C)C)C(CO[Si](C)(C)C(C)(C)C)OC1n1ccc(=O)[nH]c1=O` (stereo unspecified), the GI50 was 1.05 µM (active) with HOP-92; 1.6 µM (inactive) in the assay with ACHN; 1.42 µM (inactive) in the assay with M14; 1.38 µM (inactive) with SN12C; 1.52 µM (inactive) in the assay with DU-145; 0.705 µM (active) with LOX IMVI. Further, the GI50 in the assay on NCI-H226 was 1.51 µM (inactive); in the assay with HOP-62 it was 1.98 µM (inactive); in the assay with CCRF-CEM, 0.548 µM (active); in the assay on SF-295, 1.78 µM (inactive); in the assay with UACC-62 it was 1.73 µM (inactive); in the assay with BT-549 it was 1.93 µM (inactive). For the same molecule, the GI50 in the assay with MCF7 was 1.15 µM (inactive); in the assay with RPMI-8226, 1.4 µM (inactive); with SR, 2.07 µM (inactive); in the assay on OVCAR-3 it was 1.6 µM (inactive); with SNB-19 it was 1.61 µM (inactive).
Take `O=C1CN(c2ccccc2)C(=O)CN1CCN1CC(=O)N(c2ccccc2)CC1=O`: the GI50 with HOP-92, with ACHN, with Malme-3M, in the assay with M14, with SN12C and with DU-145 was > 100 µM (inactive) each time. Besides, the GI50 in the assay on HOP-62, in the assay with SF-295, in the assay on UACC-62, with BT-549, with MCF7 and with RPMI-8226 was > 100 µM (inactive) each time. Also, the GI50 in the assay on SR, in the assay with OVCAR-3 and in the assay with SNB-19 was > 100 µM (inactive) throughout.
For `CCOc1ccc(-n2c(=O)n3c(Nc4ccc(Cl)cc4)nc4c(c(=O)n(C)c(=O)n4C)n3c2=O)cc1`, the GI50 was 22.5 µM (inactive) with HOP-92; 43.4 µM (inactive) in the assay on ACHN; > 10 µM (inactive) in the assay with M14; 27.2 µM (inactive) in the assay on SN12C; 40.9 µM (inactive) in the assay with DU-145; 20.4 µM (inactive) in the assay with LOX IMVI. Further, the GI50 with NCI-H226 was 22.7 µM (inactive); in the assay with HOP-62, 71.1 µM (inactive); in the assay with CCRF-CEM it was 20.8 µM (inactive); in the assay with SF-295, 31.6 µM (inactive); with UACC-62 it was 18.1 µM (inactive); with BT-549, 29 µM (inactive). Further, the GI50 in the assay with MCF7 is 57.3 µM (inactive); in the assay on RPMI-8226, 24 µM (inactive); in the assay on SR, 21 µM (inactive); in the assay with OVCAR-3, 23 µM (inactive); in the assay on SNB-19, > 100 µM (inactive).
As to `[O-][S+]1CC[S+]([O-])CC[S+]([O-])CC1` (stereo unspecified), the GI50 in the assay with HOP-92, with M14, in the assay on SN12C, in the assay on DU-145, in the assay on LOX IMVI and in the assay with HOP-62 was > 100 µM (inactive) in each case. In addition, the GI50 with CCRF-CEM, with SF-295, in the assay on UACC-62, in the assay on BT-549, in the assay with MCF7 and in the assay with SR was > 100 µM (inactive) throughout. For the same molecule, the GI50 in the assay on OVCAR-3 and in the assay on SNB-19 was > 100 µM (inactive) throughout.
Turning to `COc1ccc2c(c1)[C@@H]1c3cc(OC)c(OC)cc3CCN1CCC2`, the GI50 was 9.18 µM (inactive) in the assay with HOP-92; > 100 µM (inactive) with ACHN; > 100 µM (inactive) with Malme-3M; > 100 µM (inactive) in the assay with M14; > 100 µM (inactive) in the assay on SN12C; > 100 µM (inactive) with DU-145. Further, the GI50 with LOX IMVI was 98.4 µM (inactive); with HOP-62, > 100 µM (inactive); in the assay with CCRF-CEM it was 87.7 µM (inactive); in the assay with SF-295, > 100 µM (inactive); in the assay with UACC-62, > 100 µM (inactive); with BT-549, 68.9 µM (inactive). Moreover, the GI50 was 83.4 µM (inactive) in the assay on MCF7; 54.8 µM (inactive) with RPMI-8226; 76 µM (inactive) in the assay on SR; > 100 µM (inactive) with OVCAR-3; > 100 µM (inactive) in the assay with SNB-19.
Regarding `CC1(C)CO[P@@](=S)(c2ccccn2)O[C@@H]1c1ccccc1`, the GI50 with HOP-92, in the assay on ACHN, in the assay with Malme-3M, in the assay with M14, with SN12C and with DU-145 was > 100 µM (inactive) throughout. In addition, the GI50 is > 100 µM (inactive) in the assay on LOX IMVI; 76.2 µM (inactive) in the assay with NCI-H226; > 100 µM (inactive) with HOP-62; 64.4 µM (inactive) with CCRF-CEM; > 100 µM (inactive) with SF-295; > 100 µM (inactive) with UACC-62. In addition, the GI50 is > 100 µM (inactive) with BT-549; > 100 µM (inactive) in the assay with MCF7; 39.4 µM (inactive) with SR; 18.7 µM (inactive) in the assay with OVCAR-3; > 100 µM (inactive) in the assay on SNB-19.
In the case of `COc1ccc(CCNC(=O)c2ccccc2C2c3ccc(OCc4ccccc4)cc3Oc3cc(OCc4ccccc4)ccc32)cc1OC`, the GI50 with ACHN, in the assay with Malme-3M, in the assay on M14, with SN12C, with DU-145 and with LOX IMVI was > 100 µM (inactive) each time. In addition, the GI50 with NCI-H226, in the assay with HOP-62, in the assay on SF-295, in the assay on UACC-62, in the assay on BT-549 and in the assay with MCF7 was > 100 µM (inactive) each time. Further, the GI50 in the assay with RPMI-8226, with SR, in the assay on OVCAR-3 and in the assay with SNB-19 was > 100 µM (inactive) in each case.
As to `COc1cc(CCCOC(=O)/C=C/c2ccc(O)c(O)c2)cc(O)c1O`, the GI50 in the assay on ACHN was > 100 µM (inactive); in the assay on Malme-3M it was 74 µM (inactive); with M14, > 100 µM (inactive); in the assay on SN12C it was 29.2 µM (inactive); in the assay on DU-145, > 100 µM (inactive); in the assay on LOX IMVI, 17.6 µM (inactive). Further, the GI50 was > 100 µM (inactive) in the assay on NCI-H226; > 100 µM (inactive) with HOP-62; 30.8 µM (inactive) in the assay on CCRF-CEM; 35.1 µM (inactive) in the assay on SF-295; 27.9 µM (inactive) with UACC-62; 30.7 µM (inactive) with BT-549. Moreover, the GI50 in the assay on MCF7 is 24.8 µM (inactive); in the assay with RPMI-8226, 27.4 µM (inactive); in the assay with SR it was 43.6 µM (inactive); with OVCAR-3 it was 42.1 µM (inactive); with SNB-19, > 100 µM (inactive).
In the case of `OCCN1CN(c2nc(N3CN(CCO)C3)nc(N3CN(CCO)C3)n2)C1`, the GI50 in the assay on HOP-92 is 19.9 µM (inactive); in the assay with ACHN, 31.6 µM (inactive); with Malme-3M it was 21.5 µM (inactive); in the assay with M14, 17.5 µM (inactive); in the assay with SN12C, 18 µM (inactive); in the assay on DU-145, 23.6 µM (inactive). In addition, the GI50 in the assay with LOX IMVI is 14.8 µM (inactive); in the assay with NCI-H226, 24.8 µM (inactive); in the assay on HOP-62, 19.3 µM (inactive); in the assay on CCRF-CEM, 20.5 µM (inactive); in the assay with UACC-62, 14.5 µM (inactive); with BT-549, 32.6 µM (inactive). In addition, the GI50 in the assay with MCF7 is 21.3 µM (inactive); in the assay with RPMI-8226, 27.6 µM (inactive); with SR it was 11.2 µM (inactive); in the assay with SNB-19, 23 µM (inactive).
As to `Nc1ccc([As](=O)(O)O)cc1` [ARSANILIC ACID], the GI50 with HOP-92, with ACHN, in the assay with Malme-3M, in the assay on M14, with SN12C and in the assay on DU-145 was > 100 µM (inactive) in each case. The GI50 in the assay on LOX IMVI, with NCI-H226, with HOP-62, in the assay with CCRF-CEM, in the assay on SF-295 and with UACC-62 was > 100 µM (inactive) throughout. The GI50 in the assay on BT-549, in the assay with MCF7, in the assay with SR, with OVCAR-3 and in the assay on SNB-19 was > 100 µM (inactive) throughout.

These data come from ChEMBL document CHEMBL1201862, “PubChem BioAssay data set” (2004).
